Entries after “also recorded” stand apart in the source; their conditions may differ.
Legend:
[1] = tested on: CHK1 and CHK2 phosphorylation in LN229 MGMT+/−, MMR+/− cells; assay: Western blotting of checkpoint kinase phosphorylation; type: cell-based, human; details: 20 μM, 24 or 48 h
Protocol: Western Blotting. For phospho-protein analysis experiments, cells were lysed in 1× RIPA buffer (Cell Signaling Technology, #9806) supplemented with 1× Protease Inhibitor Cocktail (Roche) and 1× PhosSTOP Phosphatase Inhibitor Cocktail (Sigma). For all other western blot analyses, cells were lysed in lysis buffer (50 mM HEPES, 250 mM NaCl, 5 mM EDTA, 1% NP-40) supplemented with 1× Protease Inhibitor Cocktail (Roche). The de-ubiquitination inhibitor N-ethylmaleimide (NEM, 4 mM) was added in FANCD2 ubiquitination analysis experiments. Proteins were separated using NuPAGE 4-12% Bis-Tris or 3-8% Tris-Acetate Gels (Invitrogen) and transferred to Immobilon-P PVDF membrane (Millipore) for western blotting. Membranes were blocked with 5% milk in TBS-T for 1 h prior to primary antibody addition overnight at 4° C. […] Where shown, bands were quantified using ImageJ software.

[2] = tested on: LN229 MGMT−/MMR+ and LN229 MGMT−/MMR− (or MGMT−/MSH6−) flank tumors; assay: Murine flank tumor models; type: in vivo; details: for median OS: Kaplan-Meier
Protocol: Mouse Protocols for Flank Studies. A mouse tumor model was established by subcutaneously implanting human LN229 (MGMT−/MMR+) or LN229 (MGMT−/MMR−) cells. Cells were cultured as a monolayer in DMEM+10% FBS (Thermo Fisher) at 37° C. in a humidified atmosphere with 5% CO2 and passaged between one and three days prior to implantation and media was replaced every 2-3 days as needed to maintain cell viability. Cells were not allowed to exceed 80% confluency. On the day of implantation, cells were trypsinized, washed with complete media and pelleted by centrifugation at 1200 rpm for 5 minutes. The supernatant was decanted, and cells were washed three times with sterile PBS and pelleted by centrifugation. During the final centrifugation, viability was determined using trypan blue exclusion. Cells were resuspended in sterile PBS and diluted 1:1 in Matrigel (Corning, Cat #47743-716) for a final concentration of 5×10^6 cells/100 μL. 5 million cells were injected into the flank of female nude mice (Envigo, Hsd:Athymic Nude-Foxn1^nu, 3-4 weeks age, 15 g). Once tumors reached a minimum volume of 100 mm^3, mice were randomized and administered either KL-50 (4a; 5 mg/kg MWF×3 weeks), TMZ (1a; 5 mg/kg MWF×3 weeks), or vehicle (10% cyclodextrin) by oral gavage. Caliper measurements were obtained during the dosing period and at least two weeks following treatment. Mice were euthanized if body weight loss exceeded 20% or if tumor volume increased to greater than 2000 mm^3. Kaplan-Meier analysis was used to evaluate survival rate based on death or removal from study.
In a second study, mice were randomized and administered either KL-50 (4a) or vehicle (10% cyclodextrin) by oral gavage or intraperitoneal injection on either M-F×1 or MWF×3 cycles at 5, 15, or 25 mgs/kg. Caliper measurements were obtained during the dosing period and at least two weeks following treatment. Mice were euthanized if body weight loss exceeded 20% or if tumor volume increased to greater than 2000 mm^3.
The third study involved MGMT−/MMR+ and MGMT−/MSH6− (shMSH6) LN229 cells. Mice tumors were allowed to grow to a larger average starting volume of ˜350 mm^3 before they were randomized and administered either KL-50 (4a; 25 mg/kg MWF×3 weeks) or vehicle (10% cyclodextrin) by oral gavage. Caliper measurements were obtained during the dosing period and at least two weeks following treatment. Mice were euthanized if body weight loss exceeded 20% or if tumor volume increased to greater than 3000 mm^3.

[3] = tested on: LN229 MGMT+/−, MMR+/− cells; assay: Clonogenic cell survival assay; details: cell status given in the value
Protocol: Cells were trypsinized, washed, counted, and diluted in a medium containing various concentrations of drug. They were then immediately seeded in six-well plates in triplicate at three-fold dilutions, ranging from 9000 to 37 cells per well. Depending on colony size, these plates were kept in the incubator for 10 to 14 days. After incubation, colonies were washed in phosphate-buffered saline (PBS), stained with crystal violet, counted, and quantified.

[4] = LN229 MGMT−/MMR− flank tumor-bearing mice, 5 mg/kg P.O. MWF×3 weeks

| SMILES | CHK1 and CHK2 phosphorylation (in words) [1] | tumor growth, MGMT−/MMR+ flank tumors (in words) ([2]; 5 mg/kg P.O. MWF×3 weeks) | tumor growth, MGMT−/MMR− flank tumors (in words) ([2]; 5 mg/kg P.O. MWF×3 weeks) | median OS [2, 4] | clonogenic survival (in words) [3] | increase in median OS vs TMZ [2, 4] | body weight (in words) ([2]; LN229 flank tumor experiments, 5 mg/kg P.O. MWF×3 weeks) | efficacy and toxicity over regimens (in words) ([2]; MGMT−/MMR+ and MGMT−/MMR− flank tumors, 5, 15, 25 mg/kg, MWF×3 weeks or M-F×1 week, PO or IP) | growth of large tumors (in words) ([2]; ~350-400 mm^3 MGMT−/MMR+ and MGMT−/MSH6− tumors, 25 mg/kg PO MWF×3 weeks) |
| --- | --- | --- | --- | --- | --- | --- | --- | --- | --- |
| Cn1nnc2c(C(N)=O)ncn2c1=O [TMZ, temozolomide, reference compound] | only induced phospho-CHK1 and —CHK2 in MGMT−/MMR+ cells | suppressed tumor growth | no efficacy | 10 weeks | negligible activity in MGMT+LN229 cells, irrespective of MMR status; also recorded: robust tumor cell killing in MGMT−, MMR+ cells that was abolished in isogenic cells lacking MMR | – | – | – | – |
| NC(=O)c1ncn2c(=O)n(CCF)nnc12 [KL-50, 3-(2-fluoroethyl)-4-oxo-3H,4H-imidazo[4,3-d][1,2,3,5]tetrazine-8-carboxamide] | induced CHK1 and CHK2 phosphorylation in MGMT− cells regardless of MMR status | statistically non-inferior to TMZ (1a) | potently suppressed tumor growth | greater than 15 weeks | robust antitumor activity in MGMT− cells, independent of MMR status; also recorded: minimal toxicity to MGMT+ cells at doses up to at least 200 μM | greater than 5 week | no significant changes in body weight | effective and non-toxic; also recorded: equal efficacy with no observable increases in toxicity | potently suppressed the growth |

Source: US20240400572A1, “COMPOUNDS AND METHODS FOR TREATING CANCERS THAT ARE MGMT DEFICIENT REGARDLESS OF MMR STATUS” (Yale University, priority 2021, published 2024)
